Experiments:
[1] = molecular target: T1, Dual specificity mitogen-activated protein kinase kinase 1 (Homo sapiens, UniProt Q02750); experiment: Non-competitive inhibition of the dual specificity kinase MEK at the concentration 10 uM
[2] = molecular target: Dual specificity mitogen-activated protein kinase kinase; MEK1/2 (Homo sapiens, UniProt P36507+Q02750); experiment: Ability to antagonise AP-1 transcriptional activity; format: functional
[3] = molecular target: T1, Dual specificity mitogen-activated protein kinase kinase 1
[4] = molecular target: T1, Dual specificity mitogen-activated protein kinase kinase 1; experiment: Inhibition of the dual specificity kinase MEK-1 (Inactive)

T1 sequence (Q02750 whole entry): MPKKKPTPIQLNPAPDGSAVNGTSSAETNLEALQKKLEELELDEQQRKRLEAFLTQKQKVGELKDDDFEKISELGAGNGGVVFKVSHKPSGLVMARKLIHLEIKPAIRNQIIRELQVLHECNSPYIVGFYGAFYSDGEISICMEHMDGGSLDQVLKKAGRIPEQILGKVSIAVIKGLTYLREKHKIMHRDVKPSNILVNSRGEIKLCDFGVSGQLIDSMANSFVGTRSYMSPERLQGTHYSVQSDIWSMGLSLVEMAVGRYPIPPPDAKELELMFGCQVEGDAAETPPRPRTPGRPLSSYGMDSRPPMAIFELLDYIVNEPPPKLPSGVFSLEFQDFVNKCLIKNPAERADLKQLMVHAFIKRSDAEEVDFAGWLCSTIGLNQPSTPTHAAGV

| Compound | inhibition [1] | IC50 [2] | IC50 [3] | IC50 [4] |
| --- | --- | --- | --- | --- |
| CC(=O)Nc1ccc(S/C(N)=C(C#N)/C(C#N)=C(\N)Sc2ccc(NC(C)=O)cc2)cc1 | 0% |  |  |  |
| N#CC(=C(/N)Sc1ccccc1)/C(C#N)=C(\N)Sc1ccccc1 |  | 12200 nM | 900 nM |  |
| N#Cc1c(N)[nH]c(Sc2ccc3ccccc3c2)c1C#N |  | 25100 nM | 1400 nM |  |
| CCc1ccccc1S/C(N)=C(C#N)/C(C#N)=C(\N)Sc1ccccc1CC | 18% |  |  |  |
| COc1ccc(S/C(N)=C(C#N)/C(C#N)=C(\N)Sc2ccc(OC)c(OC)c2)cc1OC | 0% |  |  |  |
| N#Cc1c(N)[nH]c(Sc2ccccc2N)c1C#N |  | 26200 nM | 13500 nM |  |
| N#CC(=C(/N)Sc1c(F)c(F)c(F)c(F)c1F)/C(C#N)=C(\N)Sc1c(F)c(F)c(F)c(F)c1F | 17% |  |  |  |
| Cc1ccccc1S/C(N)=C(C#N)/C(C#N)=C(\N)Sc1ccccc1C |  | 13300 nM | 2000 nM |  |
| N#CC(=C(/N)Sc1ccccc1[N+](=O)[O-])/C(C#N)=C(\N)Sc1ccccc1[N+](=O)[O-] | 41% |  |  |  |
| N#CC(=C(/N)Sc1ccccc1Cl)/C(C#N)=C(\N)Sc1ccccc1Cl |  | 6600 nM | 900 nM |  |
| N#CC(=C(/N)Sc1cccs1)/C(C#N)=C(\N)Sc1cccs1 |  | 1200 nM | 300 nM |  |
| COc1ccc(OC)c(S/C(N)=C(C#N)/C(C#N)=C(\N)Sc2cc(OC)ccc2OC)c1 | 18% |  |  |  |
| N#CC(=C(/N)Sc1cccc(Cl)c1)/C(C#N)=C(\N)Sc1cccc(Cl)c1 |  | 18400 nM | 1900 nM |  |
| N#CC(=C(/N)Sc1cccc(-c2ccccc2)c1)/C(C#N)=C(\N)Sc1cccc(-c2ccccc2)c1 | 54.6% |  |  |  |
| N#CC(=C(/N)Sc1ccccc1N)/C(C#N)=C1\Nc2ccccc2S1 |  | 18700 nM | 3200 nM |  |
| N#CC(=C(/N)Sc1ccccc1CO)/C(C#N)=C(\N)Sc1ccccc1CO | 51% |  |  |  |
| N#CC(=C(/N)Sc1ccc(-c2ccccc2)cc1)/C(C#N)=C(\N)Sc1ccc(-c2ccccc2)cc1 | 34% |  |  |  |
| N#CC(=C(/N)Sc1ccc(Cl)cc1)/C(C#N)=C(\N)Sc1ccc(Cl)cc1 |  | 21700 nM | 2100 nM |  |
| COc1ccccc1S/C(N)=C(C#N)/C(C#N)=C(\N)Sc1ccccc1OC |  | 16500 nM | 4500 nM |  |
| CNc1ccccc1S/C(N)=C(C#N)/C(C#N)=C(\N)Sc1ccccc1NC | 19.1% |  |  |  |

| Compound | inhibition [1] | IC50 [2] | IC50 [3] | IC50 [4] |
| --- | --- | --- | --- | --- |
| N#CC(=C(/N)SCCO)/C(C#N)=C(\N)SCCO | 0% |  |  |  |
| N#Cc1c(C#N)c2sc3ccccc3n2c1Sc1ccccc1N |  |  |  | Not Active |
| N#CC(=C(/N)Sc1ccccc1Br)/C(C#N)=C(\N)Sc1ccccc1Br |  | 7900 nM | 1100 nM |  |
| N#CC(=C(/N)Sc1ccc2ccccc2c1)/C(C#N)=C(\N)Sc1ccc2ccccc2c1 | 54% |  |  |  |
| CC(=O)Nc1ccccc1Sc1c(C#N)c(C#N)c2sc3ccccc3n12 |  |  |  | Not Active |
| CS/C(N)=C(C#N)/C(C#N)=C(\N)SC | 24% |  |  |  |
| N#CC(=C(/N)Sc1cc(I)ccc1N)/C(C#N)=C(\N)Sc1cc(I)ccc1N | 34.8% |  |  |  |
| N#CC(=C(/N)Sc1ccccc1O)/C(C#N)=C(\N)Sc1ccccc1O |  | 400 nM | 300 nM |  |
| N#Cc1c(Sc2ccc3ccccc3c2)[nH]c(Sc2ccc3ccccc3c2)c1C#N |  | 28900 nM | 2100 nM |  |
| N#CC(=C(/N)Sc1ccc(C(F)(F)F)cc1)/C(C#N)=C(\N)Sc1ccc(C(F)(F)F)cc1 | 33% |  |  |  |
| N#CC(=C1/Nc2ccccc2S1)/C(C#N)=C1\Nc2ccccc2S1 |  | 42500 nM | 700 nM |  |
| N#CC(=C(/N)Sc1cccc(C(F)(F)F)c1)/C(C#N)=C(\N)Sc1cccc(C(F)(F)F)c1 | 32% |  |  |  |
| N#CC(=C(/N)Sc1cccc2ccccc12)/C(C#N)=C(\N)Sc1cccc2ccccc12 | 26% |  |  |  |
| CN1/C(=C(C#N)\C(C#N)=C2\Sc3ccccc3N2C)Sc2ccccc21 |  |  |  | Not Active |
| N#CC(=C(/N)Sc1ccccc1-c1ccccc1)/C(C#N)=C(\N)Sc1ccccc1-c1ccccc1 | 8.7% |  |  |  |
| N#CC(=C(/N)Sc1ccc(O)cc1)/C(C#N)=C(\N)Sc1ccc(O)cc1 |  |  | 400 nM |  |
| N#CC(=C(/N)Sc1ccccc1F)/C(C#N)=C(\N)Sc1ccccc1F |  | 7600 nM | 900 nM |  |
| N#Cc1c(NS(=O)(=O)c2ccccc2)[nH]c(Sc2ccc3ccccc3c2)c1C#N |  | 8000 nM | 1900 nM |  |
| N#CC(=C(/N)Sc1ccc2ccccc2c1N)/C(C#N)=C(\N)Sc1ccc2ccccc2c1N |  |  | 2100 nM |  |
| N#CC(=C(/N)Sc1c(Cl)cccc1Cl)/C(C#N)=C(\N)Sc1c(Cl)cccc1Cl |  | 6500 nM | 2800 nM |  |
